In patent publication EP4624465A1, “COMPOUND SERVING AS DDR1 KINASE INHIBITOR, AND MEDICINE” (Nippon Shinyaku Co., Ltd., priority 2022, dated 2024):
Structures can show the parent of a compound that is named as a salt.

Columns and labels:
DDR1 kinase [1] = biological target: T1, DDR1 kinase (Homo sapiens, UniProt Q08345); experiment: Evaluation of DDR1 kinase inhibition in DDR1-expressing U2OS cells (type I collagen stimulation, PathHunter detection); format: cell-based; set-up: host or cells: U2OS; conditions: type I collagen 50 µg/mL stimulation, duplicate, read-out: DDR-1 IC50
Protocol: The solution was further diluted in an E-MEM medium (Fujifilm Wako Pure Chemicals, 051-07615) containing 10% fetal bovine serum (FBS, Gibco, 10270106) to 60000, 6000, 600, 60, 6, and 0.6 nM to prepare test substance solutions. 2. […] On the following day, after the plate was left at room temperature for 1 hour, a detection solution was added to the wells at […] according to the handling instructions for the PathHunter® Detection Kit (DiscoverX, 93-0001), and then incubated at room temperature for 2 hours. After the incubation, a luminescence intensity was measured by Envision (Perkin-Elmer). Tests were performed in duplicate. 3.
Target sequence in this assay (Q08345 19-913): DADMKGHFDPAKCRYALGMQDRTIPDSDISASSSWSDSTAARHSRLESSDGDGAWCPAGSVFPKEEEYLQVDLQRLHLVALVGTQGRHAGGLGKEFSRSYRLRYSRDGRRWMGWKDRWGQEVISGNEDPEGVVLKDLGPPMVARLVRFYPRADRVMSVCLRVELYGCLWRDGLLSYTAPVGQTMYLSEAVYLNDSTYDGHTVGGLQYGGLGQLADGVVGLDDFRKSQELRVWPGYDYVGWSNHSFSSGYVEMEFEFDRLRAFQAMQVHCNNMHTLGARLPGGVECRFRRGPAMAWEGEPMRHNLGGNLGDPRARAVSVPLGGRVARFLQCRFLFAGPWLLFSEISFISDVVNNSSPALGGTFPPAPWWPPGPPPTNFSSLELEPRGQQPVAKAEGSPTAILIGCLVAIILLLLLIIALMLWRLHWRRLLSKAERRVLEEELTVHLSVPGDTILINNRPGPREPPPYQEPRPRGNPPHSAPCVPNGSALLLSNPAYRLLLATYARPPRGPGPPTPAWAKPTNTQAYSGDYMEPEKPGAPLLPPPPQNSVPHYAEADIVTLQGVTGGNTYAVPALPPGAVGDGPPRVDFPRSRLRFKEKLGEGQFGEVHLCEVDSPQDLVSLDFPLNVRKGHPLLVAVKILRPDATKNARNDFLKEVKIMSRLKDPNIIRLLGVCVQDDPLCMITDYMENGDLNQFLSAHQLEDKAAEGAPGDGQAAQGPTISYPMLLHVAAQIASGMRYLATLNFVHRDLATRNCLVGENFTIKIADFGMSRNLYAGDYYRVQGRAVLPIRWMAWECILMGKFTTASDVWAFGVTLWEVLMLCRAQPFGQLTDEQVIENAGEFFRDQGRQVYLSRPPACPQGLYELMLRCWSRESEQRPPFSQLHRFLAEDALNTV

DDR1 kinase [2] = biological target: T1, DDR1 kinase; experiment: Evaluation of DDR1 kinase inhibition (LANCE Ultra TR-FRET kinase assay); format: biochemical; set-up: purchased Carna Biosciences 08-113; conditions: DDR1 protein 0.5 nM, LANCE Ultra ULight-poly GAT substrate, 2 hours at room temperature, duplicate; read-out: DDR-1 IC50
Target sequence in this assay (Q08345 19-876 isoform Q08345-2 limits assumed): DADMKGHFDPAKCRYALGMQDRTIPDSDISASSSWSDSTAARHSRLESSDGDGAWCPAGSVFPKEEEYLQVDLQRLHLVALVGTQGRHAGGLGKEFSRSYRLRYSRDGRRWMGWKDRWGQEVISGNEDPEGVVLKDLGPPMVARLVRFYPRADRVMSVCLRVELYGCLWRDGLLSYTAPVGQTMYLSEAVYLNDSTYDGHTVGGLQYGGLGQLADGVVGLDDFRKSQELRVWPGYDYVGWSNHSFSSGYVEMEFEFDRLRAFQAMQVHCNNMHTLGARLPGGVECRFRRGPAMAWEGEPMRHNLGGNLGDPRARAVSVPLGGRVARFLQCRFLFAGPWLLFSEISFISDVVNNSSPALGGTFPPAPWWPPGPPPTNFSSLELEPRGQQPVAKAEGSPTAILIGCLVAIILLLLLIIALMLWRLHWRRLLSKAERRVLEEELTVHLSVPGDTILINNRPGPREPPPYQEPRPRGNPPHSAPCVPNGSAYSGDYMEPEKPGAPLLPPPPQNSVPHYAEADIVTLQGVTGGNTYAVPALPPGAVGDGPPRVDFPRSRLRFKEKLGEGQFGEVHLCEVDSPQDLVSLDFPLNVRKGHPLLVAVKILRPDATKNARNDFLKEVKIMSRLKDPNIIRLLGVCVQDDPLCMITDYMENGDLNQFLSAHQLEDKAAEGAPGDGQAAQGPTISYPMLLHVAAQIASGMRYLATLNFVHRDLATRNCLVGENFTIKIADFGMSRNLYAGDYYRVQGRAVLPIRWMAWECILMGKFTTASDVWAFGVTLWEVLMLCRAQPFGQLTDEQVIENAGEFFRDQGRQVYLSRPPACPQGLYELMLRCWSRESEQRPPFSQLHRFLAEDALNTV

Compound	IC50 (DDR1 kinase [1]) [nM]	IC50 (DDR1 kinase [2]) [nM]
Cc1cnc(N)cc1C(=O)N1CC(c2nn(CC(=O)N3CCC[C@H]3C(F)(F)F)c3cc(F)cc(F)c23)C1 [Compound E-78, 2-{3-[1-(2-amino-5-methylpyridine-4-carbonyl)azetidin-3-yl]-4,6-difluoro-1H-indazol-1-yl}-1-[(2S)-2-(trifluoromethyl)pyrrolidin-1-yl]ethan-1-one hydrochloride]	380	13
O=C(Cn1nc(C2CN(C(=O)c3ccnc(NC4CC4)c3)C2)c2c(F)cccc21)NCC(F)(F)F [Compound E-65, 2-(3-{1-[2-(cyclopropylamino)pyridine-4-carbonyl]azetidin-3-yl}-4-fluoro-1H-indazol-1-yl)-N-(2,2,2-trifluoroethyl)acetamide hydrochloride]	41	1.9
Nc1cc(C(=O)N2CC(c3nn(Cc4nc(-c5cccc(C(F)(F)F)c5)no4)c4cccc(F)c34)C2)ccn1 [Compound E-55, 4-{3-[4-fluoro-1-({3-[3-(trifluoromethyl)phenyl]-1,2,4-oxadiazol-5-yl}methyl)-1H-indazol-3-yl]azetidine-1-carbonyl}pyridin-2-amine]	150	23
O=C(c1cnc2ccccn12)N1CC(c2nn(CC(=O)N3CCC[C@H]3C(F)(F)F)c3cc(F)cc(F)c23)C1 [Compound E-101]	270	21
Nc1cc(C(=O)N2CC(c3nn(Cc4noc(-c5ccc(F)cc5)n4)c4cccc(F)c34)C2)ccn1 [Compound E-116, 4-[3-(4-fluoro-1-{[5-(4-fluorophenyl)-1,2,4-oxadiazol-3-yl]methyl}-1H-indazol-3-yl)azetidine-1-carbonyl]pyridin-2-amine]	800	4.4
O=C(Cn1nc(C2CN(C(=O)c3ccnc(NC4CC4)c3)C2)c2c(F)cc(F)cc21)NCC(F)(F)F [Compound E-30, 2-(3-{1-[2-(cyclopropylamino)pyridine-4-carbonyl]azetidin-3-yl}-4,6-difluoro-1H-indazol-1-yl)-N-(2,2,2-trifluoroethyl)acetamide hydrochloride]	74	4.1
Nc1cc(C(=O)N2CC(c3nn(Cc4nc(C(F)(F)F)no4)c4cccc(F)c34)C2)ccn1 [Compound E-115, 4-[3-(4-fluoro-1-{[3-(trifluoromethyn-1,2,4-oxadiazol-5-yl]methyl}-1H-indazol-3-yl)azetidine-1-carbonyl]pyridin-2-amine hydrochloride]	250	8.6
Nc1nc(C(F)(F)F)c(C(=O)N2CC(c3nn(CC(=O)N4CCC[C@H]4C(F)(F)F)c4cc(F)cc(F)c34)C2)s1 [Compound E-139, 2-(3-{1-[2-amino-4-(trifluoromethyl)-1,3-thiazole-5-carbonyl]azetidin-3-yl}-4,6-difluoro-1H-indazol-1-yl)-1-[(2S)-2-(trifluoromethyl)pyrrolidin-1-yl]ethan-1-one]	850	18
O=C(Cn1nc(C2CN(C(=O)c3cc(NC4CC4)ncn3)C2)c2c(F)cc(F)cc21)NCC(F)(F)F [Compound E-31, 2-(3-{1-[6-(cyclopropylamino)pyrimidine-4-carbonyl]azetidin-3-yl}-4,6-difluoro-1H-indazol-1-yl)-N-(2,2,2-trifluoroethyl)acetamide]	690	21
Nc1cc(C(=O)N2CC(c3nn(CC(=O)N4CCO[C@H](C(F)(F)F)C4)c4cc(F)cc(F)c34)C2)ccn1 [Compound E-82, 2-{3-[1-(2-aminopyridine-4-carbonyl)azetidin-3-yl]-4,6-difluoro-1H-indazol-1-yl}-1-[(2S)-2-(trifluoromethyl)morpholin-4-yl]ethan-1-one]	130	0.8
CC(C)(C)NC(=O)Cn1nc(C2CN(C(=O)c3ccnc(N)c3)C2)c2c(F)cc(F)cc21 [Compound E-189, 2-(3-[1-(2-aminopyridine-4-carbonyl)azetidin-3-yl]-4,6-difluoro-1H-indazol-1-yl}-N-tert-butylacetamide]	460	11
O=C(Cn1nc(C2CN(C(=O)c3ccnc(NC4CC4)c3)C2)c2c(Cl)c(F)ccc21)NCC(F)(F)F [Compound E-1, 2-(4-chloro-3-{1-[2-(cycloropylamino)pyridine-4-carbonyl]azetidin-3-yl}-5-fluoro-1H-indazol-1-yl)-N-(2,2,2-trifluoroethyl)acetamide hydrochloride]	78	0.4
Nc1cc(C(=O)N2CC=C(c3cn(CC(=O)N4CCC[C@H]4C(F)(F)F)c4cccc(F)c34)CC2)ccn1 [Compound E-124]	140	2.2

The next lines start with the values.

IC50 (DDR1 kinase [1]) [nM]	IC50 (DDR1 kinase [2]) [nM]	Compound
17	2	CN(C(=O)Cn1nc(C2CN(C(=O)c3cc(N)ncc3F)C2)c2ccccc21)C1CC(F)(F)C1 [Compound E-250, 2-{3-[1-(2-amino-5-fluoropyridine-4-carbonyl)azetidin-3-yl]-1H-indazol-1-yl}-N-(3,3-difluorocyclobutyl)-N-methylacetamide]
380	10	Nc1cc(C(=O)N2CC(c3nn(CC(=O)NC4CC(F)(F)C4)c4ccccc34)C2)ccn1 [Compound E-214, 2-{3-[1-(2-aminopyridine-4-carbonyl)azetidin-3-yl]-1H-indazol-1-yl}-N-(3,3-difluorocyclobutyl)acetamide]
510	11	Nc1cc(C(=O)N2CC(c3nn(CC(=O)NC4CC4(F)F)c4ccccc34)C2)c(F)cn1 (centres unmarked) [Compound E-248, 2-{3-[1-(2-amino-5-fluoropyridine-4-carbonyl)azetidin-3-yl]-1H-indazol-1-yl}-N-(2,2-difluorocyclopropyl)acetamide]
230	5.2	Cc1c(C(=O)N2CC(c3nn(CC(=O)N4CCO[C@@H](C(F)(F)F)C4)c4ccccc34)C2)ccnc1N [Compound E-8, 2-{3-[1-(2-amino-3-methylpyridine-4-carbonyl)azetidin-3-yl]-1H-indazol-1-yl}-1-[(2R)-2-(trifluoromethyl)morpholin-4-yl]ethan-1-one]
140	4.4	CN(CC(F)(F)F)C(=O)Cn1nc(C2CN(C(=O)c3ccnc(N)c3)C2)c2ccccc21 [Compound E-45, 2-{3-[1-(2-aminopyridine-4-carbonyl)azetidin-3-yl]-1H-indazol-1-yl}-N-methyl-N-(2,2,2-trifluoroethyl)acetamide]
3	1.4	Nc1cc(C(=O)N2CC(c3nn(CC(=O)N4CCC[C@H]4C(F)F)c4ccccc34)C2)c(F)cn1 [Compound E-272, 2-{3-[1-(2-amino-5-fluoropyridine-4-carbonyl)azetidin-3-yl]-1H-indazol-1-yl}-1-[(2S)-2-(difluoromethyl)pyrrolidin-1-yl]ethan-1-one]
420	41	N#CC1(NC(=O)Cn2nc(C3CN(C(=O)c4cc(N)ncc4F)C3)c3ccccc32)CC1 [Compound E-244, 2-{3-{1-(2-amino-5-fluoropyridine-4-carbonyl)azetidin-3-yl]-1H-indazol-1-yl}-N-(1-cyanocyclopropyl)acetamide]
180	22	CN(C(=O)Cn1nc(C2CN(C(=O)c3cc(N)ncc3F)C2)c2ccccc21)C1CCOCC1 [Compound E-255, 2-{8-[1-(2-amino-5-fluoropyridine-4-carbonyl)azetidin-8-yl]-1H-indazol-1-yl}-N-methyl-N-(oxan-4-yl)acetamide]
120	4.8	N#C[C@@H]1CCCN1C(=O)Cn1nc(C2CN(C(=O)c3cc(N)ncc3F)C2)c2ccccc21 [Compound E-236]
89	7.9	CC1(C)COCCN1C(=O)Cn1nc(C2CN(C(=O)c3ccnc(N)c3)C2)c2ccccc21 [Compound E-188, 2-{3-[1-(2-aminopyridine-4-carbonyl)azetidin-3-yl]-1H-indazol-1-yl}-1-(3,3-dimethylmorpholin-4-yl)ethan-1-one]
74	0.3	CC(C)[C@@H]1COCCN1C(=O)Cn1nc(C2CN(C(=O)c3ccnc(N)c3)C2)c2c(F)cc(F)cc21 [Compound E-83, 2-{3-[1-(2-aminopyridine-4-carbonyl)azetidin-3-yl]-4,6-difluoro-1H-indazol-1-yl]-1-[(3R)-3-(propan-2-yl)morpholin-4-yl]ethan-1-one]
110	34	Nc1cc(C(=O)N2CC(c3nn(CC(=O)N4CCO[C@@H](C(F)(F)F)C4)c4cncc(F)c34)C2)ccn1 [Compound E-100]
4200	36	C[C@@H]1COCCN1C(=O)Cn1nc(C2CN(C(=O)c3ccnc(N)c3)C2)c2c(F)cc(F)cc21 [Compound E-80, 2-{3-[1-(2-aminopyridine-4-carbonyl)azetidin-3-yl]-4,6-difluoro-1H-indazol-1-yl}-1-[(3R)-3-methylmorpholin-4-yl]ethan-1-one hydrochloride]
65	15	CCN(CC)C(=O)Cn1nc(C2CN(C(=O)c3cc(N)ncc3F)C2)c2ccccc21 [Compound E-263, 2-{3-[1-(2-amino-5-fluoropyridine-4-carbonyl)azetidin-3-yl]-1H-indazol-1-yl}-N,N-diethylacetamide]
93	22	CN(CC(F)(F)F)C(=O)Cn1nc(C2CN(C(=O)c3ccnc(N)c3)C2)c2c(F)cccc21 [Compound E-87, 2-{3-[1-(2-aminopyridine-4-carbonyl)azetidin-3-yl]-4-fluoro-1H-indazol-1-yl}-N-methyl-N-(2,2,2-trifluoroethyl)acetamide]
